Results published in ChEMBL document CHEMBL5030517, “6-Halopyridylmethylidene Penicillin-Based Sulfones Efficiently Inactivate the Natural Resistance of Pseudomonas aeruginosa to β-Lactam Antibiotics” (J Med Chem, 2021).
Converted amounts (≈) assume the structure as drawn. The source made the active and inactive calls. The rule behind the calls is not given here.

Columns and labels:
[1] = test system: Pseudomonas aeruginosa PAO1; experiment: Inhibition of beta-lactamase activity in Pseudomonas aeruginosa PAO1 deltadacB assessed as MIC for cefpodoxime antibacterial activity at 16 mg/L by broth microdilution method
[2] = test system: Pseudomonas aeruginosa PAO1; experiment: Inhibition of beta-lactamase activity in Pseudomonas aeruginosa PAO1 deltadacB assessed as MIC for cefpodoxime antibacterial activity at 4 mg/L by broth microdilution method
[3] = test system: Pseudomonas aeruginosa PAO1; experiment: Inhibition of beta-lactamase activity in Pseudomonas aeruginosa PAO1 deltadacBdeltaampD assessed as MIC for cefpodoxime antibacterial activity at 16 mg/L by broth microdilution method
[4] = test system: Pseudomonas aeruginosa PAO1; experiment: Inhibition of beta-lactamase activity in Pseudomonas aeruginosa PAO1 deltadacBdeltaampD assessed as MIC for cefpodoxime antibacterial activity at 4 mg/L by broth microdilution method
[5] = test system: Pseudomonas aeruginosa PAO1; experiment: Inhibition of beta-lactamase activity in Pseudomonas aeruginosa PAO1 deltadacBdeltadacC assessed as MIC for cefpodoxime antibacterial activity at 16 mg/L by broth microdilution method
[6] = test system: Pseudomonas aeruginosa PAO1; experiment: Inhibition of beta-lactamase activity in Pseudomonas aeruginosa PAO1 deltadacBdeltadacC assessed as MIC for cefpodoxime antibacterial activity at 4 mg/L by broth microdilution method
[7] = test system: Pseudomonas aeruginosa PAO1; experiment: Inhibition of beta-lactamase activity in Pseudomonas aeruginosa PAO1 deltadacBdeltapbpGdeltadacC assessed as MIC for cefpodoxime antibacterial activity at 16 mg/L by broth microdilution method
[8] = test system: Pseudomonas aeruginosa PAO1; experiment: Inhibition of beta-lactamase activity in Pseudomonas aeruginosa PAO1 deltadacBdeltapbpGdeltadacC assessed as MIC for cefpodoxime antibacterial activity at 4 mg/L by broth microdilution method
[9] = test system: Pseudomonas aeruginosa PAO1; experiment: Inhibition of beta-lactamase activity in Pseudomonas aeruginosa PAO1 deltaDdeltsDh2deltaDh3 assessed as MIC for cefpodoxime antibacterial activity at 16 mg/L by broth microdilution method
[10] = test system: Pseudomonas aeruginosa PAO1; experiment: Inhibition of beta-lactamase activity in Pseudomonas aeruginosa PAO1 deltaDdeltsDh2deltaDh3 assessed as MIC for cefpodoxime antibacterial activity at 4 mg/L by broth microdilution method
[11] = test system: Pseudomonas aeruginosa PAO1; experiment: Inhibition of beta-lactamase activity in Pseudomonas aeruginosa PAO1 assessed as MIC for cefpodoxime antibacterial activity at 16 mg/L by broth microdilution method
[12] = test system: Pseudomonas aeruginosa PAO1; experiment: Inhibition of beta-lactamase activity in Pseudomonas aeruginosa PAO1 assessed as MIC for cefpodoxime antibacterial activity at 4 mg/L by broth microdilution method
[13] = test system: Pseudomonas aeruginosa PAO1; experiment: Inhibition of beta-lactamase activity in Pseudomonas aeruginosa PAO1 deltaampD assessed as MIC for cefpodoxime antibacterial activity at 16 mg/L by broth microdilution method
[14] = test system: Pseudomonas aeruginosa PAO1; experiment: Inhibition of beta-lactamase activity in Pseudomonas aeruginosa PAO1 deltaampD assessed as MIC for cefpodoxime antibacterial activity at 4 mg/L by broth microdilution method
[15] = test system: Pseudomonas aeruginosa PAO1; experiment: Inhibition of beta-lactamase activity in Pseudomonas aeruginosa PAO1 deltaC assessed as MIC for cefpodoxime antibacterial activity at 16 mg/L by broth microdilution method
[16] = test system: Pseudomonas aeruginosa PAO1; experiment: Inhibition of beta-lactamase activity in Pseudomonas aeruginosa PAO1 deltaC assessed as MIC for cefpodoxime antibacterial activity at 4 mg/L by broth microdilution method
[17] = test system: Pseudomonas aeruginosa PAO1; experiment: Inhibition of beta-lactamase activity in Pseudomonas aeruginosa PAO1 deltaC+pUCP-(PDC-1) assessed as MIC for cefpodoxime antibacterial activity at 16 mg/L by broth microdilution method
[18] = test system: Pseudomonas aeruginosa PAO1; experiment: Inhibition of beta-lactamase activity in Pseudomonas aeruginosa PAO1 deltaC+pUCP-(PDC-1) assessed as MIC for cefpodoxime antibacterial activity at 4 mg/L by broth microdilution method
[19] = test system: Pseudomonas aeruginosa PAO1; experiment: Inhibition of beta-lactamase activity in Pseudomonas aeruginosa PAO1 deltaC+pUCP-(PDC-5) assessed as MIC for cefpodoxime antibacterial activity at 16 mg/L by broth microdilution method
[20] = test system: Pseudomonas aeruginosa PAO1; experiment: Inhibition of beta-lactamase activity in Pseudomonas aeruginosa PAO1 deltaC+pUCP-(PDC-5) assessed as MIC for cefpodoxime antibacterial activity at 4 mg/L by broth microdilution method
[21] = test system: Pseudomonas aeruginosa PAO1; experiment: Inhibition of beta-lactamase activity in Pseudomonas aeruginosa PAO1 23/14-053 (ST-309) assessed as MIC for cefpodoxime antibacterial activity at 16 mg/L by broth microdilution method
[22] = test system: Pseudomonas aeruginosa PAO1; experiment: Inhibition of beta-lactamase activity in Pseudomonas aeruginosa PAO1 36/14-210 (ST-235) assessed as MIC for cefpodoxime antibacterial activity at 16 mg/L by broth microdilution method
[23] = test system: Pseudomonas aeruginosa PAO1; experiment: Inhibition of beta-lactamase activity in Pseudomonas aeruginosa PAO1 53/22-113 (ST-244) assessed as MIC for cefpodoxime antibacterial activity at 16 mg/L by broth microdilution method
[24] = test system: Pseudomonas aeruginosa PAO1; experiment: Inhibition of beta-lactamase activity in Pseudomonas aeruginosa PAO1 13/09-018 (ST-175) assessed as MIC for cefpodoxime antibacterial activity at 16 mg/L by broth microdilution method
[25] = test system: Pseudomonas aeruginosa PAO1; experiment: Inhibition of beta-lactamase activity in Pseudomonas aeruginosa PAO1 13/09-018 (ST-175) assessed as MIC for cefpodoxime antibacterial activity at 4 mg/L by broth microdilution method
[26] = test system: Pseudomonas aeruginosa PAO1; experiment: Inhibition of beta-lactamase activity in Pseudomonas aeruginosa PAO1 17/14-017 (ST-235) assessed as MIC for cefpodoxime antibacterial activity at 16 mg/L by broth microdilution method
[27] = test system: Pseudomonas aeruginosa PAO1; experiment: Inhibition of beta-lactamase activity in Pseudomonas aeruginosa PAO1 17/14-017 (ST-235) assessed as MIC for cefpodoxime antibacterial activity at 4 mg/L by broth microdilution method
[28] = test system: Pseudomonas aeruginosa PAO1; experiment: Inhibition of beta-lactamase activity in Pseudomonas aeruginosa PAO1 23/14-053 (ST-309) assessed as MIC for cefpodoxime antibacterial activity at 4 mg/L by broth microdilution method
[29] = test system: Pseudomonas aeruginosa PAO1; experiment: Inhibition of beta-lactamase activity in Pseudomonas aeruginosa PAO1 36/14-210 (ST-235) assessed as MIC for cefpodoxime antibacterial activity at 4 mg/L by broth microdilution method
[30] = test system: Pseudomonas aeruginosa PAO1; experiment: Inhibition of beta-lactamase activity in Pseudomonas aeruginosa PAO1 53/22-113 (ST-244) assessed as MIC for cefpodoxime antibacterial activity at 4 mg/L by broth microdilution method
[31] = test system: Pseudomonas aeruginosa PAO1; experiment: Inhibition of beta-lactamase activity in Pseudomonas aeruginosa PAO1 6/04-224 (ST-175) assessed as MIC for cefpodoxime antibacterial activity at 16 mg/L by broth microdilution method
[32] = test system: Pseudomonas aeruginosa PAO1; experiment: Inhibition of beta-lactamase activity in Pseudomonas aeruginosa PAO1 6/04-224 (ST-175) assessed as MIC for cefpodoxime antibacterial activity at 4 mg/L by broth microdilution method
[33] = test system: Pseudomonas aeruginosa PAO1; experiment: Inhibition of beta-lactamase activity in Pseudomonas aeruginosa PAO1 PAHUAC-14 (ST-966) assessed as MIC for cefpodoxime antibacterial activity at 16 mg/L by broth microdilution method
[34] = test system: Pseudomonas aeruginosa PAO1; experiment: Inhibition of beta-lactamase activity in Pseudomonas aeruginosa PAO1 PAHUAC-14 (ST-966) assessed as MIC for cefpodoxime antibacterial activity at 4 mg/L by broth microdilution method
[35] = test system: Pseudomonas aeruginosa PAO1; experiment: Inhibition of beta-lactamase activity in Pseudomonas aeruginosa PAO1 PAHUAC-27(ST-22) assessed as MIC for cefpodoxime antibacterial activity at 16 mg/L by broth microdilution method
[36] = test system: Pseudomonas aeruginosa PAO1; experiment: Inhibition of beta-lactamase activity in Pseudomonas aeruginosa PAO1 PAHUAC-27(ST-22) assessed as MIC for cefpodoxime antibacterial activity at 4 mg/L by broth microdilution method
[37] = Inhibition beta lactamase PDC-1 in Pseudomonas aeruginosa PAO1 assessed as apparent inhibition constant using nitrocefin as substrate measured by 96 well microtitre plate; conditions: read-out: Ki(app)
[38] = test system: Pseudomonas aeruginosa PAO1; experiment: Inhibition beta lactamase PDC-1 in Pseudomonas aeruginosa PAO1 assessed as inactivation efficiency by measuring acylation rate (k2/K) using nitrocefin as substrate measured by 96 well microtitre plate
[39] = Inhibition beta lactamase PDC-1 in Pseudomonas aeruginosa PAO1 using nitrocefin as substrate measured by 96 well microtitre plate
[40] = test system: Pseudomonas aeruginosa PAO1; experiment: Inhibition beta lactamase PDC-1 in Pseudomonas aeruginosa PAO1 assessed as ratio of kinact/K1 using nitrocefin as substrate measured by 96 well microtitre plate
[41] = test system: Pseudomonas aeruginosa PAO1; experiment: Inhibition beta lactamase PDC-1 in Pseudomonas aeruginosa PAO1 assessed as deacylation off-rate using nitrocefin as substrate at 30 mins measured by 96 well microtitre plate
[42] = test system: Pseudomonas aeruginosa PAO1; experiment: Inhibition beta lactamase PDC-1 in Pseudomonas aeruginosa PAO1 assessed as maximum rate of inactivation using nitrocefin as substrate measured by 96 well microtitre plate
[43] = test system: Pseudomonas aeruginosa PAO1; experiment: Inhibition beta lactamase PDC-1 in Pseudomonas aeruginosa PAO1 assessed half life of nitrocefin substrate measured by 96 well microtitre plate assay
[44] = test system: Pseudomonas aeruginosa PAO1; experiment: Inhibition of beta lactamase PDC-1 in Pseudomonas aeruginosa PAO1 assessed as reduction in enzyme activity using nitrocefin as chromogenic substrate preincubated for 10 min using 96 well microtiter plate
Pseudomonas aeruginosa = experiment: Inhibition of beta lactamase PDC-1 in Pseudomonas aeruginosa PAO1 for 30 min using MALDI TOF-MS analysis

Compound `C[C@]1(COC(=O)Cc2ccc(O)c(O)c2)[C@H](C(=O)O)N2C(=O)/C(=C/c3ccccn3)[C@H]2S1(=O)=O` has an MIC [1] of 0.5 µg/mL (≈ 1.02 µM), an MIC [2] of 1 µg/mL (≈ 2.05 µM) and an MIC [3] of 1 µg/mL (≈ 2.05 µM). For the same compound, the MIC [4] was 8 µg/mL (≈ 16.4 µM), the MIC [5] was 0.5 µg/mL (≈ 1.02 µM) and the MIC [6] was 1 µg/mL (≈ 2.05 µM). For the same compound, the MIC [7] was 0.5 µg/mL (≈ 1.02 µM), the MIC [8] was 1 µg/mL (≈ 2.05 µM) and the MIC [9] was 0.5 µg/mL (≈ 1.02 µM). The MIC [10] was 4 µg/mL (≈ 8.19 µM), the MIC [11] was 1 µg/mL (≈ 2.05 µM) and the MIC [12] was 1 µg/mL (≈ 2.05 µM). For the same compound, the MIC [13] was 1 µg/mL (≈ 2.05 µM), the MIC [14] was 2 µg/mL (≈ 4.09 µM) and the MIC [15] was 1 µg/mL (≈ 2.05 µM). The MIC [16] was 1 µg/mL (≈ 2.05 µM), the MIC [17] was 1 µg/mL (≈ 2.05 µM) and the MIC [18] was 1 µg/mL (≈ 2.05 µM). For the same compound, the MIC [19] was 2 µg/mL (≈ 4.09 µM), the MIC [20] was 2 µg/mL (≈ 4.09 µM) and the MIC [21] was 1 µg/mL (≈ 2.05 µM). The MIC [22] was 8 µg/mL (≈ 16.4 µM), the MIC [23] was 4 µg/mL (≈ 8.19 µM) and the MIC [24] was 8 µg/mL (≈ 16.4 µM). The MIC [25] was 2 µg/mL (≈ 4.09 µM), the MIC [26] was 2 µg/mL (≈ 4.09 µM) and the MIC [27] was 2 µg/mL (≈ 4.09 µM). For the same compound, the MIC [28] was 1 µg/mL (≈ 2.05 µM), the MIC [29] was 16 µg/mL (≈ 32.8 µM) and the MIC [30] was 8 µg/mL (≈ 16.4 µM). It also gave an MIC [31] of 8 µg/mL (≈ 16.4 µM), an MIC [32] of 8 µg/mL (≈ 16.4 µM) and an MIC [33] of 2 µg/mL (≈ 4.09 µM). For the same compound, the MIC [34] was 16 µg/mL (≈ 32.8 µM), the MIC [35] was 1 µg/mL (≈ 2.05 µM) and the MIC [36] was 2 µg/mL (≈ 4.09 µM). For the same compound, the Ki [37] was 53 nM, the k2/K inactivation efficiency [38] was 1.5 M⁻¹ s⁻¹ and the IC50 [39] was 6.1 nM. For the same compound, the K [40] was 6.3 10^5/M/s, the K [41] was 9 10^-2/min and the Kinact [42] was 0.046 s⁻¹. For the same compound, the T1/2 [43] was 1.37 h, the inhibition [44] was “inactive” and the inhibition (Pseudomonas aeruginosa) was “inactive”.
